The values that follow come from US20260306639A1, “DEGRADER FOR DECOMPOSING CMET PROTEIN, AND PHARMACEUTICAL COMPOSITION COMPRISING SAME” (INNOCURE THERAPEUTICS, INC., priority 2022, published 2026).

One may read the IC50 as the concentration that inhibits the measured activity by half. A lower IC50 goes with greater potency in that assay. In general, DC50 refers to the concentration giving 50% degradation. A high value points to degradation only at high concentration.

One experiment deals with SNU-638. Description: cell viability / antiproliferative activity (WST-8), SNU-638 cells. Format: cell-based, human. As to conditions: SNU-638 gastric cancer cells, 72 hours.
For the next experiment, the system named is EBC-1. The experiment is described as follows: cell viability / antiproliferative activity (WST-8), EBC-1 cells. Format: cell-based, human. As to conditions: EBC-1 lung cancer cells, 72 hours. (Tetrazolium dyes change colour on reduction, which living cells bring about.)
Experiment [1] has as its system c-MET. The experiment is described as follows: c-MET protein degradation (Simple Western), SNU-638 cells. As to conditions: SNU-638 gastric cancer cells, c-MET overexpressing; 24 hours. Format: cell-based, human. As for the experimental part: (§1) In order to assess the resolution of the compound of the present invention for c-MET expressed in cells, cells were dispensed in a 12-well plate at a concentration of 2×10^5 cells/well, and then gastric cancer cell lines were treated with samples for 24 hours and lung cancer cell lines were treated for 48 hours. Cell lysates were collected using a scraper on ice, centrifuged at 4° C. 15,000 rpm for 30 min to obtain a protein-containing supernatant. Protein expression was then measured using the Simple Western Automated Western Blot System Abby instrument using 3 μg of protein for each sample. SDS and heat-induced denaturation proteins were separated by molecular weight, attached to capillary, reacted with anti-c-MET or anti-GAPDH antibodies, which are primary antibodies, and then reacted with HRP-conjugated secondary antibodies, and analyzed the protein expression signal with compass software. Protein expression was normalized based on the expression value of GAPDH, and protein development in each sample was measured as a percentage (%) based on 100% of samples treated with 0.1% DMSO carriers, and DC50 (concentration of a compound where 50% protein inhibition is achieved) was calculated from the change in protein expression amount due to compound treatment.

In experiment [2] the test system is c-MET. The experiment is described as follows: c-MET protein degradation (Simple Western), EBC-1 cells. Format: cell-based, human. As to conditions: EBC-1 lung cancer cells, c-MET overexpressing; 48 hours. As for the experimental part:
as §1

The subject of experiment [3] is c-MET. The experiment is described as follows: c-MET protein degradation (Simple Western), MKN-45 cells. As to conditions: MKN-45 gastric cancer cells, c-MET overexpressing; 24 hours. Format: cell-based, human. Summed up: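 Cells at 2×10^5 cells/well exposed to compound for 24 h (gastric lines) or 48 h (lung lines). Lysates (3 μg protein) probed for c-MET by capillary Simple Western, normalized to GAPDH and expressed as % of 0.1% DMSO control. DC50 is the concentration giving 50% protein reduction.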

In experiment [4] the test system is c-MET. The experiment is described as follows: c-MET protein degradation (Simple Western), Hs746T cells. Format: cell-based, human. As to conditions: Hs746T gastric cancer cells, c-MET exon 14 skipping mutant; 24 hours. Here is the method: as §1
For the next experiment, the system named is MKN-45. Description: cell viability / antiproliferative activity (WST-8), MKN-45 cells. As to conditions: Homo sapiens; MKN-45 gastric cancer cells; 72 hours. Format: cell-based.

Consider “3-((3-fluoro-4-(4-(2-(4-(4-(4-(2-(2-((S)-2-((5-(1-methyl-1H-pyrazole-4-yl)-1H-[1,2,3]triazolo[4,5-b]pyrazine-1-yl)methyl)morpholino)pyrimidine-5-yl)benzyl)piperazine-1-il)acetyl)piperazine-1-il)phenyl)amino)piperidine-2,6-dione [ICT-0001379]”, for which the IC50 with SNU-638 and in the experiment with EBC-1 was below 100 nM throughout. Further, the DC50 in the experiment with c-MET [1] and in the experiment with c-MET [2] was below 100 nM each time.

Take `Cc1nn(C2CCC(=O)NC2=O)c(=O)c2ccc(N3CCN(c4ccc(NC(=O)CN5CCC(COc6cnc(-c7cccc(Cn8nc(-c9cccc(C#N)c9)ccc8=O)c7)nc6)CC5)cc4)CC3)cc12` (centres unmarked) [ICT-0001207]: the DC50 with c-MET [3], with c-MET [4], with c-MET [1] and in the experiment on c-MET [2] was below 100 nM in each case.

Take `Cc1nn(C2CCC(=O)NC2=O)c(=O)c2cc(N3CCN(CCC(=O)N4CCC(COc5cnc(-c6cccc(Cn7nc(-c8cccc(C#N)c8)ccc7=O)c6)nc5)CC4)CC3)ccc12` (centres unmarked) [ICT-0001215]: the IC50 in the experiment with MKN-45, in the experiment with SNU-638 (Homo sapiens) and in the experiment with EBC-1 (Homo sapiens) was below 100 nM each time. Also, the DC50 in the experiment on c-MET [3], in the experiment on c-MET [1] and in the experiment on c-MET [2] was below 100 nM in each case.

As to `Cc1nn(C2CCC(=O)NC2=O)c(=O)c2ccc(N3CCN(CCN4CCC(COc5cnc(-c6cccc(Cn7nc(-c8cccc(C#N)c8)ccc7=O)c6)nc5)CC4)CC3)cc12` (centres unmarked) [ICT-0001277, 3-(1-{[3-(5-{[1-(2-{4-[2-(2,6-dioxopiperidin-3-yl)-4-methyl-1-oxo-1,2-dihydrophthalazine-6-yl]piperazine-1-yl}ethyl)piperidine-4-il]methoxy}pyrimidine-2-yl)phenyl]methyl}6-oxo-1,6-dihydropyridazine-3-yl)benzonitrile], the DC50 with c-MET [3], in the experiment on c-MET [4], in the experiment with c-MET [1] and in the experiment on c-MET [2] was below 100 nM each time.

Regarding `N#Cc1cccc(-c2ccc(=O)n(Cc3cccc(-c4ncc(OCC5CCN(Cc6cn(C7CCC(=O)NC7=O)nn6)CC5)cn4)c3)n2)c1` (centres unmarked) [ICT-0001384, 3-{1-[(3-{5-[(1-{[1-(2,6-dioxopiperidine-3-yl)-1H-1,2,3-triazole-4-yl]methyl}piperidine-4-il)methoxy]pyrimidine-2-yl}phenyl)methyl]-6-oxo-1,6-dihydropyridazine-3-yl}benzonitrile], the 50% inhibitory concentration (IC50) in the experiment with SNU-638 (Homo sapiens) is 100 to 1000 nM; in the experiment on EBC-1 (Homo sapiens) it was below 100 nM. Besides, the DC50 in the experiment on c-MET [1] was above 1000 nM; with c-MET [2] it was below 100 nM.

For the molecule `N#Cc1cccc(-c2ccc(=O)n(Cc3cccc(-c4ncc(N5CCN(CC6CCN(c7ccc(NC8CCC(=O)NC8=O)cc7F)CC6)CC5)cn4)c3)n2)c1` (centres unmarked) [ICT-0001402], the DC50 in the experiment with c-MET [4], with c-MET [1] and with c-MET [2] was below 100 nM throughout.

With `N#Cc1cccc(-c2ccc(=O)n(Cc3cccc(-c4ncc(OCC5CCN(CC(=O)N6CCN(c7ccc(NC8CCC(=O)NC8=O)c(F)c7)CC6)CC5)cn4)c3)n2)c1` (centres unmarked) [ICT-0001437, 3-(1-(3-(5-((1-(1-(2-(4-((2,6-dioxopiperidine-3-yl)amino)-3-fluorophenyl)piperazine-1-yl)-2-oxoethyl)piperidine-4-yl)methoxy)pyrimidine-2-yl)benzyl)6-oxo-1,6-dihydropyridazine-3-yl)benzonitrile], the IC50 in the experiment with SNU-638 (Homo sapiens) and with EBC-1 (Homo sapiens) was below 100 nM each time. Further, the DC50 with c-MET [1] and in the experiment with c-MET [2] was below 100 nM each time.
